Results on 1 cell line are retold here after the supplement of paper PMC10307832.

Holding throughout (assay): relative viability (nuclei count vs DMSO), 5 days (fraction); higher = more cells survive
Compound in one assay: C[C@]12O[C@H](C[C@]1(O)CO)n1c3ccccc3c3c4c(c5c6ccccc6n2c5c31)CNC4=O [Lestaurtinib]
In outline:
(§1)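 MetaXpress counted nuclei in 4× images of lung cancer cell lines that had been fixed, permeabilised and Hoechst-stained in one step. Before that, cells in 1536-well plates were kept overnight at 37 °C, pinned with five √10-spaced library-drug doses on vehicle-anchored plates, and cultured 5 days without medium change. Viability takes treated-well nuclei over vehicle-well nuclei and uses the median across plates. Plates were accepted only at control CV below 25% and at least one doubling.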

Compound in assay [1]: C1/C(=C\C2=CC=CS2)/C(=O)/C(=C/C3=CC=CS3)/C1
In outline:
as §1

Compound in a further assay: C1=CC(=CC=C1C2=CC(=C(S2)NC(=O)N)C(=O)N)F [TPCA-1]
In a few lines: as §1

Compound in the assay “TPCA-1 + Decitabine”: C1=CC(=CC=C1C2=CC(=C(S2)NC(=O)N)C(=O)N)F [TPCA-1] + Nc1ncn([C@H]2C[C@H](O)[C@@H](CO)O2)c(=O)n1 [Decitabine] (partner 2 µM)
In outline: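 After 5 days of treatment, lung cancer cells in 1536-well plates were fixed and stained in a single step (final 0.05% Triton X-100, 1% formaldehyde, 1 ug/ml Hoechst) and their nuclei counted on 4× images. Treatment had been applied by pin tool the day after seeding as one drug alone or as a fixed anchor-drug dose with five library-drug doses (not always all listed) in √10 steps. Relative viability is the nuclei count of treated wells divided by that of vehicle wells, and values are medians of duplicate plates.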

Regarding UMC-11, the relative viability with Lestaurtinib (0.005 µM) is 1.01; with Lestaurtinib (0.01581 µM) it was 0.958; in the assay with Lestaurtinib (0.05 µM), 0.615; in the assay with Lestaurtinib (0.1581 µM), 0.353; with Lestaurtinib (0.5 µM), 0.19; in assay [1] (0.2 µM), 0.975. Moreover, the relative viability in assay [1] (0.6325 µM) was determined as 0.993; in assay [1] (2 µM), 0.954; in assay [1] (6.325 µM), 0.711; in assay [1] (20 µM) it was 0.941; with TPCA-1 (0.04 µM), 1.03; with TPCA-1 (0.1265 µM), 0.87. In addition, the relative viability in the assay with TPCA-1 (0.4 µM) stood at 1.03; in the assay with TPCA-1 (1.265 µM), 0.976; in the assay with TPCA-1 (4 µM) it was 0.374; with TPCA-1 + Decitabine (first compound 0.04 µM) it was 0.584; in the assay with TPCA-1 + Decitabine (first compound 0.1265 µM), 0.501; with TPCA-1 + Decitabine (first compound 0.4 µM), 0.792. Besides, the relative viability with TPCA-1 + Decitabine (first compound 1.265 µM) amounted to 0.613; with TPCA-1 + Decitabine (first compound 4 µM) it was 0.439.
